Here are results for nine molecules from US12558435B2, “Transient inhibition of p53 in gene therapy” (Ospedale San Raffaele S.R.L., priority 2018, dated 2026).

A word on the IC50: it is the midpoint of a concentration-inhibition curve.

The conditions of series [1]: DMSO and ethanol; cited from earlier work.
In series [2] the test system is human CD34+ cells. The format is cell-based. The settings on record: for HDR efficiency (GFP+ cells): molecules added one day before viral transduction, FIG. 2B; for editing efficiency by molecular analyses on genomic DNA: human HSPC, FIG. 8B. Here is the method: CD34+ cells were either freshly purified from human CB after obtaining informed consent and upon approval by the Ospedale San Raffaele Bioethical Committee, or purchased frozen from Lonza. CD34+ cells were edited according to a previously optimized protocol (Schiroli et al. 2017 supra).
Briefly, 5×10^5 CD34+ cells/ml were stimulated in serum-free StemSpan medium (StemCell Technologies) supplemented with penicillin, streptomycin, glutamine, 1 μM SR-1 (Biovision), […] (STEMCell Technologies), 10 μM PGE2 added only at the beginning of the culture (Cayman), and human early-acting cytokines (SCF 100 ng/ml, Flt3-L 100 ng/ml, TPO 20 ng/ml, and IL-6 20 ng/ml; all purchased from Peprotech). After 3 days of prestimulation, cells were washed with PBS and electroporated using P3 Primary Cell 4D-Nucleofector X Kit and program EO-100 (Lonza). Cells were electroporated with 2.5-1.25 μM of RNPs.
Transduction with AAV6 was performed at a dose of 1-2×10^4 vg/cell 15′ after electroporation. GSE56 mRNA was utilized were indicated at a dose of 150 μg/ml. Gene editing efficiency was measured from cultured cells in vitro 3 days after electroporation by flow cytometry measuring the percentage of cells expressing the GFP marker or by digital droplet PCR analysis designing primers and probe on the junction between the vector sequence and the targeted locus and on control sequences utilized as normalizer as previously described (Schiroli et al. 2017 supra).
For HDR ddPCR, primers and probes were designed on the junction between the vector sequence and the targeted locus and on control sequences used for normalization (human TTC5 genes). Thermal conditions for annealing and extension were adjusted for each specific application as follows: AAVS1/Intron 1 IL2RG HDR 3′ integration junction ddPCR: 55° C. for 30 sec, 72° C. for 2 min. Primers and probes for PCR and ddPCR amplifications are shown below.
CD34^+ cells were purchased frozen from Lonza. CD34^+ cells were edited according to a previously optimised protocol (Schiroli, G. et al (2017) Sci Transl Med 9). Briefly, 1-5×10^5 CD34^+ cells/ml were stimulated in serum-free StemSpan medium (StemCell Technologies) supplemented with penicillin, streptomycin, glutamine, 1 μM of the arylhydrocarbon receptor antagonist SR-1 (Biovision), […] of the pyrimidoindole-derivative UM171 (STEMCell Technologies), 10 μM of the 15-hydroxy PGDH competitive inhibitor dmPGE-2 added only at the beginning of the culture (Cayman), and human early-acting cytokines (SCF 100 ng/ml, Flt3-L 100 ng/ml, TPO 20 ng/ml, and IL-6 20 ng/ml; all purchased from Peprotech). After 3 days of pre-stimulation, cells were washed with PBS and electroporated using P3 Primary Cell 4D-Nucleofector X Kit and program EO-100 (Lonza). Cells were electroporated with 1-1.2 μM of RNPs. Where specified, electroporation mixture was supplemented with Ad5-E4orf1, Ad5-E4orf6/7 and GSE56/Ad5-E4orf6/7 mRNAs, which were respectively utilized at doses of 120, 80 and 200 μg/ml, or Ad5-E1B55K and Ad5-E4orf6 mRNAs were used at 120 and 80 μg/ml. All other adenoviral protein variants were used at standard dose 120 μg/ml. Transduction with AAV-6 was performed 15 min post-electroporation at dose of 1-5×10^4 vg/cell. Where specified, CD34+ cells were stimulated for shorter time in culture (0, 24 or 48 hours) and edited as described above. Gene editing efficiency was measured from cultured cells in vitro at 4 days post-editing by flow cytometry measuring the percentage of cells expressing the GFP reporter gene or by digital droplet PCR analysis designing primers and probe on the junction between the vector sequence and the targeted locus and on control sequence utilised as normaliser as previously described (Schiroli, G. et al (2017) Sci Transl Med 9) and Schiroli et al., Cell Stem Cell 2019. […]

Series [3] has as its system human CD34+ cells. As to the kind of experiment: Cell growth curve of edited CD34+ cells. The format is cell-based.
For series [4], the system named is human CD34+ cells. As to the kind of experiment: NHEJ by mismatch-sensitive endonuclease (T7 Endonuclease I) assay in edited CD34+ cells. The format is cell-based. The settings on record: bulk cells, 3 days after gene editing; FIG. 2C. As to the method: The percentage of insertions and deletion (indels) introduced by the Non Homologous End Joining (NHEJ) repair pathway on the nucleases target site was measured by a mismatch-sensitive endonuclease assay (PCR-based amplification of the targeted locus followed by digestion with T7 Endonuclease I; digested DNA fragments were resolved and quantified by capillary electrophoresis on LabChip GX Touch HT, Perkin Elmer) The levels of NHEJ-induced mutations were used as surrogate readout for scoring nucleases activity.
For molecular analyses, genomic DNA was isolated with DNeasy Blood & Tissue Kit or QIAamp DNA Micro Kit (QIAGEN) according to the number of cells available. Nuclease activity (IL2RG intron 1, AAVS1) was measured by mismatch-sensitive endonuclease assay by PCR-based amplification of the targeted locus followed by digestion with T7 Endonuclease I (NEB) according to the manufacturer's instructions. Digested DNA fragments were resolved and quantified by capillary electrophoresis on LabChip GX Touch HT (Perkin Elmer) according to the manufacturer's instructions.
For molecular analyses, genomic DNA was isolated with DNeasy Blood & Tissue Kit or QIAamp DNA Micro Kit (QIAGEN) according to the number of cells available. […] Digested DNA fragments were resolved and quantified by capillary electrophoresis on LabChip GX Touch HT (Perkin Elmer) according to the manufacturer's instructions.

The target in series [5] is ATR (Homo sapiens, UniProt Q13535). The conditions noted are these: cited from earlier work.
For series [6], the target named is ATM kinase (Homo sapiens, UniProt Q13315). The settings on record: cited from earlier work.
The target in series [7] is T1, ATR (Mus musculus, UniProt Q9JKK8).
T1 construct: endogenous in cells; host or cells: 3T3TopBP1-ER cells
The settings on record: in 3T3TopBP1-ER cells; cited from earlier work.

Series [8] deals with human CD34+ cells. As to the kind of experiment: Cell cycle analysis by Hoechst 33342 staining. The format is cell-based. The settings on record: bulk treated cells; 12-24 hours; FIG. 14H. Here is the method: Cell cycle was analysed by flow cytometry (CytoFLEX LX; Beckman Coulter) at 12-24 hours post-editing by collecting 0.5-1×10^5 total HSPCs in culture. Cells were washed with PBS+2% FBS and stained by using 10 μg/ml Hoechst 33342 (Sigma-Aldrich) in PBS+2% FBS for 0.5-1 hour in final volume equal to 200 μl.

Series [9] deals with human CD34+ cells. Kind of series: CFU-C / colony forming cell assay of edited CD34+ cells. The format is cell-based.
The subject of series [10] is human CD34+ cells transplanted into NSG mice. Kind of series: Xenotransplantation of edited human CD34+ cells in NSG mice. The format is in vivo. The settings on record: AAVS1; T0eq=3×10^5/mouse; FIG. 17B. As to the method: For transplantation, 3×10^5 CD34+ cells treated for editing at day 5 of culture were injected intravenously into NSG mice after sub-lethal irradiation (150-180 cGy). Sample size was determined by the total number of available treated cells. Mice were attributed to each experimental group randomly. Human CD45+ cell engraftment and the presence of gene-edited cells were monitored by serial collection of blood from the mouse tail and, at the end of the experiment (>20 weeks after transplantation), BM and spleen were harvested and analyzed.
NOD-SCID-IL2Rg^−/− (NSG) mice were purchased from The Jackson Laboratory and were maintained in specific-pathogen-free (SPF) conditions. The procedures involving animals were designed and performed with the approval of the Animal Care and Use Committee of the San Raffaele Hospital (IACUC #749) and communicated to the Ministry of Health and local authorities according to Italian law. For transplantation, 1.5-3×10^5 (for primary) or 2×10^6 (for secondary) CD34^+ treated cells at 24 hours post-editing protocol were injected intravenously into NSG mice after sub-lethal irradiation (180 cGy). Sample size was determined by the total number of available treated cells. Mice were attributed to each experimental group randomly. Human CD45^+ cell engraftment and the percentage of edited GFP^+ cells were monitored by serial collection of blood from the mouse tail over the weeks post-transplantation and at the end of the experiment (18-20 weeks post-transplantation) both spleen and bone-marrow were harvested and analysed.

Chain of ATR (Homo sapiens, UniProt Q13535) (Q13535 whole entry): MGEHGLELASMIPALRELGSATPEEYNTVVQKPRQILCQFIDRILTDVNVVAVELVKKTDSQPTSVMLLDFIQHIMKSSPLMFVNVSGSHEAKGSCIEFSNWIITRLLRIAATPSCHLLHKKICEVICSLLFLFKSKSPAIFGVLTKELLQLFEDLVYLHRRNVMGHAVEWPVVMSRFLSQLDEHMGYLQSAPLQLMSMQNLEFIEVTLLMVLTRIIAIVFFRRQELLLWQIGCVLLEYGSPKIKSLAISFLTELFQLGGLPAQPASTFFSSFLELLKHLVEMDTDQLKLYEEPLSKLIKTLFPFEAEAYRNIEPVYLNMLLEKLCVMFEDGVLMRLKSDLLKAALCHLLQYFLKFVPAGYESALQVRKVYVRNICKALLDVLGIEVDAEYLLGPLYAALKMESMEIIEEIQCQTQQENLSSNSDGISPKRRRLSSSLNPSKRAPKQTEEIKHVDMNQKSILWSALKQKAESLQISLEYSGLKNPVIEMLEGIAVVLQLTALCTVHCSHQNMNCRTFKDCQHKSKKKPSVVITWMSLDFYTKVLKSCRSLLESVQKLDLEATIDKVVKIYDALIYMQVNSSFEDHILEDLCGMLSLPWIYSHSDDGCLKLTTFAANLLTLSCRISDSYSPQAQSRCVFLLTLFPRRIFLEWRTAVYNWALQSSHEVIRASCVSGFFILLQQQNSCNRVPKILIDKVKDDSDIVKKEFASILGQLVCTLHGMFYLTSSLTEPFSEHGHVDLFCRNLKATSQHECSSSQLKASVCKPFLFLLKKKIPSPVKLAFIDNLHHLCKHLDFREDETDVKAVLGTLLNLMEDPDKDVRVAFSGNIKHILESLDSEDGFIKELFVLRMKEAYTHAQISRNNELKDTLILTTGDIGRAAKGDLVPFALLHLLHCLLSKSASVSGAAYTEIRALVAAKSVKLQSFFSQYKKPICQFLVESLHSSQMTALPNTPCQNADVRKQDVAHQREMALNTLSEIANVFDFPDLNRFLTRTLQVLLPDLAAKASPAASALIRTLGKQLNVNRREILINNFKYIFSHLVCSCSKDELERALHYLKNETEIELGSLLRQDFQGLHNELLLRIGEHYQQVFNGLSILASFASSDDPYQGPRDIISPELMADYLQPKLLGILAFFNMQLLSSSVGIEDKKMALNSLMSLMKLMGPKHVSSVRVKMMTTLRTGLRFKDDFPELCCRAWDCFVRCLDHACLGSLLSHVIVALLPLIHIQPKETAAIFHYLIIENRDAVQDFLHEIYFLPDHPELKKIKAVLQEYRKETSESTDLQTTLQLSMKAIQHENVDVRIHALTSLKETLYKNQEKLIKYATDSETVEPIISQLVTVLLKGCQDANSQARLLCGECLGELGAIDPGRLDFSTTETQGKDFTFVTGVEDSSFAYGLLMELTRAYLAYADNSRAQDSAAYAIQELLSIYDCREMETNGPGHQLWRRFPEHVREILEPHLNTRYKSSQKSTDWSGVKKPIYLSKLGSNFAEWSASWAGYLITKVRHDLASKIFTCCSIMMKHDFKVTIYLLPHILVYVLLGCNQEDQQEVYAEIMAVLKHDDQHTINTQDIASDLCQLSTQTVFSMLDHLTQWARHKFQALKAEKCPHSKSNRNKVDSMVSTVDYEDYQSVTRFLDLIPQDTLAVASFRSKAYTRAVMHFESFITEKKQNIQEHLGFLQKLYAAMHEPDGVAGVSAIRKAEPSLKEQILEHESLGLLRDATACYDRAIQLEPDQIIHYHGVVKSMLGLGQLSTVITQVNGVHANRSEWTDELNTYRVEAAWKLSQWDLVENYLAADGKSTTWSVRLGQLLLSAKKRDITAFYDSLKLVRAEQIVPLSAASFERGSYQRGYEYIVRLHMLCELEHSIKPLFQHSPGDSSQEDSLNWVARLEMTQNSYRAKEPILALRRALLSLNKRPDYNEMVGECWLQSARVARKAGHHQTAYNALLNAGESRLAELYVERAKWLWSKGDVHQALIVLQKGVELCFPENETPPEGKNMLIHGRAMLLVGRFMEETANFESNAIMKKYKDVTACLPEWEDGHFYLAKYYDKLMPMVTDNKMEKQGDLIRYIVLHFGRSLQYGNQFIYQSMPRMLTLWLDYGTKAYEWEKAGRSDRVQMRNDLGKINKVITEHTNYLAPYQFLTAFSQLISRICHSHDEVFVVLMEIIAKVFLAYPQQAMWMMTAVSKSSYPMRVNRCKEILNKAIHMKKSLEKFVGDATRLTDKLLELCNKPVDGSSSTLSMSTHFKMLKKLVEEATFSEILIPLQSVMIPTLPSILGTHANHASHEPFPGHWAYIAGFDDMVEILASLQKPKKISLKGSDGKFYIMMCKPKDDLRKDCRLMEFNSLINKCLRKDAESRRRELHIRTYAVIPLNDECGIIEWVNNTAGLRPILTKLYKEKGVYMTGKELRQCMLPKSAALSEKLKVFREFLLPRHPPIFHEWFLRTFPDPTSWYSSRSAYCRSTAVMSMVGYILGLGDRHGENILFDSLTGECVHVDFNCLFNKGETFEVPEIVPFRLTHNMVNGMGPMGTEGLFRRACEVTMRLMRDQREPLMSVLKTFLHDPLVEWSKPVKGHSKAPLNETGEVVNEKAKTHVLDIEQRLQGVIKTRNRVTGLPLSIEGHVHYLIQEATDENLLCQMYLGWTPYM
Chain of ATR (Homo sapiens, UniProt Q13535) (Q8WXE1 whole entry partner): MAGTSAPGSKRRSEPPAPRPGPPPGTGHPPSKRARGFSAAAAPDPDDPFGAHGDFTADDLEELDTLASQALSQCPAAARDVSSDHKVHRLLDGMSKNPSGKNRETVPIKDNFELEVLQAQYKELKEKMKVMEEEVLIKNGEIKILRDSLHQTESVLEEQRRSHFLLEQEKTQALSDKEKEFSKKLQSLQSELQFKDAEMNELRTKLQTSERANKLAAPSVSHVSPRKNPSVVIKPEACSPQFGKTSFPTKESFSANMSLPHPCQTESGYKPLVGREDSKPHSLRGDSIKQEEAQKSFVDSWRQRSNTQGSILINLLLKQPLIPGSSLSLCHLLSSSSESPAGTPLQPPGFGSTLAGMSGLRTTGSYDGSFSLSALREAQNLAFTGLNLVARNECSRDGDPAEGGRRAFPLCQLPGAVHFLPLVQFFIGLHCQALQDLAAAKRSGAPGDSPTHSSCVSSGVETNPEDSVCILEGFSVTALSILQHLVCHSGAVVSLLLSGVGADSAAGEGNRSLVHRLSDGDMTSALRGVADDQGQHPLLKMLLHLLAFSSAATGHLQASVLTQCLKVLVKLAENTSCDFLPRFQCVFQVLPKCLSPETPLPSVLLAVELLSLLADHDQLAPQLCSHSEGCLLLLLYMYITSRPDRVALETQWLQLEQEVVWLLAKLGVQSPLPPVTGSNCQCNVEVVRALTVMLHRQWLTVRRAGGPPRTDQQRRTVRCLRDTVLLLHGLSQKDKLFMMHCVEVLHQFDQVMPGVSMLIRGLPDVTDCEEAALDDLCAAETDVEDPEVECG

Turning to `O=c1cc(-c2cccc3c2Sc2ccccc2S3)oc(N2CCOCC2)c1` [KU-55933], the solubility result in series [1] is “soluble in DMSO and ethanol”.

In the case of `Cc1ccc(C(=O)Cn2c3c(sc2=N)CCCC3)cc1` [pifithrin-α, reference compound], the “HDR efficiency (GFP+ cells)” value in series [2] (3 days after gene editing) is reported as “increase in HDR efficiency”.

As to “E1B55K and E4orf6: combination of adenoviral proteins E1B55K (SEQ ID No. 15) and E4orf6 (SEQ ID No. 13), delivered as mRNAs”, in [2] (FIG. 15A), the “GFP expression from the AAV6 donor” value is listed as “increased significantly the GFP expression”. Besides, the “HDR-mediated integrations at the targeted AAVS1 locus compared to standard” value in [2] (FIG. 15B) is given as “reducing HDR-mediated integrations”. Also, the “editing efficiency by molecular analyses on genomic DNA” value in [2] is given as “not effective in increasing the editing efficiency”. For the same molecule, in [2] (mainly most primitive HSPC compartment, AAVS1, FIG. 8A), the “transient increase in the fraction of GFP+ cells” value was “up to 1.45 fold”. Further, the “growth curve of treated cells” value in series [3] (FIG. 8D) is “lower compared to the standard”.

With `Cc1ccc(-c2cn3c4c(sc3n2)CCCC4)cc1` [pifithrin-α cyclic, reference compound], the “increase in DNA repair by NHEJ” value in series [4] was “two-fold”. Moreover, the cellular toxicity entry in series [2] is recorded as “lowest cellular toxicity”. In series [2] (3 days after gene editing, FIG. 2C), the “increase in gene editing in the most primitive CD34+ CD133+ CD90+ cell compartment” value is recorded as “two-fold”. Further, the “HDR efficiency (GFP+ cells)” value in [2] (3 days after gene editing) is reported as “increase in HDR efficiency”.

As for `O=C(NC(NC(=S)Nc1ccc(F)c([N+](=O)[O-])c1)C(Cl)(Cl)Cl)C(c1ccccc1)c1ccccc1` (stereo not shown) [CGK 733], the IC50 in series [5] and in series [6] was approximately 200 nM each time.

In the case of `Cn1c(=O)n(-c2ccc(C(C)(C)C#N)cc2)c2c3cc(-c4cnc5ccccc5c4)ccc3ncc21` [BEZ235], the IC50 in series [7] was approximately 21 nM.

As for `COc1cc2ncnc(-n3nc(-c4ccccn4)nc3N)c2cc1OC` [CP-466722], in [5], the “effect on ATR” value was “does not affect ATR”.

In the case of `N=c1sc2c(n1CC(=O)c1ccc([N+](=O)[O-])cc1)CCCC2` [pifithrin-α p-nitro, reference compound], in [2] (3 days after gene editing), the “HDR efficiency (GFP+ cells)” value is listed as “increase in HDR efficiency”.

B1: E4orf1: adenoviral protein from adenovirus serotype 5 E4 gene (SEQ ID No. 1), delivered as mRNA (protein)
chain: MAAAVEALYVVLEREGAILPRQEGFSGVYVFFSPINFVIPPMGAVMLSLRLRVCIPPGYFGRFLALTDVNQPDVFTESYIMTPDMTEELSVVLFNHGDQFFYGHAGMAVVRLMLIRVVFPVVRQASNV
modifications: delivered as mRNA; example amino acid sequence of Ad5-E4orf1
B1: the “cell cycle states (G1 to S/G2/M)” value in [8] was “lower and not significant”. Also, the “increase in number of myeloid and erythroid colony forming units (CFU) compared to standard” value in series [9] (FIG. 7C) was 3 fold. In series [9] (FIG. 14G), the “erythroid and myeloid clonogenic output compared to standard protocol” value is reported as “improved”. In addition, in [9] (among E4orf1 serotype variants, FIG. 21D), the number of colonies result is reported as “highest number of colonies”. The “human CD45+ cell engraftment in bloodstream, between groups” value in series [10] is “did not show any statistical significance”. Also, the “targeting efficiency versus mRNA dose” value in series [2] (AAVS1, different mRNA doses, FIG. 6D) is “dose dependent increase in the targeting efficiency”. Further, the “increase of GFP expression compared to standard RNP+AAV6” value in series [2] (AAVS1, most primitive compartment (CD34+133+90+ / CD90+), 96 hours, FIG. 14C) was “up to 1.3 fold”. The “mean increase in the percentage of targeted primitive HSPC” value in series [2] (best performing mRNA dose, AAVS1, FIG. 6D) is on record as 1.5 fold. Also, the “editing efficiency by molecular analyses on genomic DNA” value in series [2] is recorded as “reproducibly able to boost editing”. Further, the “mean increase in the fraction of GFP+ cells compared to the standard” value in series [2] (side-by-side, AAVS1, 4 days, FIG. 7A) amounted to 1.2 fold. In addition, the “growth curve of treated cells compared to standard and E4orf6/7 alone” value in series [3] (FIG. 7D) came out at 4 fold. Moreover, the “cell growth compared to standard RNP+AAV6” value in series [3] (days post-editing, FIG. 14B) is on record as “about 2 fold”.
